Assay in all cases: Kinase profiling in a biochemical assay panel (mobility shift assays and ELISA), %-inhibition at 1 μM; selectivity entropy
Assay [1] concerns the target panel of more than 300 wild-type and mutant kinases (313 kinase panel) (Homo sapiens, UniProt P49841). The note with it: kinase GSK3β; compound at 1 μM.
For assay [2], the target named is T1, panel of more than 300 wild-type and mutant kinases (313 kinase panel) (Homo sapiens, UniProt Q16566).
T1 sequence (Q16566 1-473): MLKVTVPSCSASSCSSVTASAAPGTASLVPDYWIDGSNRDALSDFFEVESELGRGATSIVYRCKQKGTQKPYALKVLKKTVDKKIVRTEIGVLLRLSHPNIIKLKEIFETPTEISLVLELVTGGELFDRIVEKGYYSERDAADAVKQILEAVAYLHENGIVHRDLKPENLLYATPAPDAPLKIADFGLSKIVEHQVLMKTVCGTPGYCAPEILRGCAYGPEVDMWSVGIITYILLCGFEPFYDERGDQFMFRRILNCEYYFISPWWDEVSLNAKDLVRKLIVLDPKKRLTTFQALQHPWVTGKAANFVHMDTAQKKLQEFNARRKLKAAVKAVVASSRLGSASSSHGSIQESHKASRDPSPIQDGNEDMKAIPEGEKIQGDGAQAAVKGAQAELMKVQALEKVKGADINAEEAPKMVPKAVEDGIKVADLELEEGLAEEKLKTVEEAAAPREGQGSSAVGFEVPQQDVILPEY
The settings on record: kinase CaMK4; 1 μM compound.

For assay [3], the target named is panel of more than 300 wild-type and mutant kinases (313 kinase panel) (Homo sapiens, UniProt P53667). The note with it: kinase LIMK1; compound at 1 μM.
The target in assay [4] is T2, panel of more than 300 wild-type and mutant kinases (313 kinase panel) (Homo sapiens, UniProt O43781).
T2 sequence (O43781 1-588): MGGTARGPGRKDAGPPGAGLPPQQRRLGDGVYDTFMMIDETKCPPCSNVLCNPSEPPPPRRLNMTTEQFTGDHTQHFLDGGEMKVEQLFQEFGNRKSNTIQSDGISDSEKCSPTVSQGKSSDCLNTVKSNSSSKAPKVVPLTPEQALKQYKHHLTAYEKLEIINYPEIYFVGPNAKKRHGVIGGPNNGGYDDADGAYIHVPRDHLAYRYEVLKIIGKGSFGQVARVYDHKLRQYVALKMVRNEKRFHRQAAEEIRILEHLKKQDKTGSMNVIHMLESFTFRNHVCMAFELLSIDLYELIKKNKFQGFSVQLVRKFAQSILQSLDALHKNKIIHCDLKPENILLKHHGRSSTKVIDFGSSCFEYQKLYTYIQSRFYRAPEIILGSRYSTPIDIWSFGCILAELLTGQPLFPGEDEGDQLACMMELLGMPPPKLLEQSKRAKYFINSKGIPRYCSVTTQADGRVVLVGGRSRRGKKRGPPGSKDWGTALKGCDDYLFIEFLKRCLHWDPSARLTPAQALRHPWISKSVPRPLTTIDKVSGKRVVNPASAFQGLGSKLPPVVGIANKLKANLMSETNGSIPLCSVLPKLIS
The settings on record: kinase DYRK3; compound at 1 μM.

In assay [5] the target is panel of more than 300 wild-type and mutant kinases (313 kinase panel) (Homo sapiens, UniProt P14616).
Assay [6] has as its target T3, panel of more than 300 wild-type and mutant kinases (313 kinase panel) (Homo sapiens, UniProt Q13043).
T3 sequence (Q13043 1-487): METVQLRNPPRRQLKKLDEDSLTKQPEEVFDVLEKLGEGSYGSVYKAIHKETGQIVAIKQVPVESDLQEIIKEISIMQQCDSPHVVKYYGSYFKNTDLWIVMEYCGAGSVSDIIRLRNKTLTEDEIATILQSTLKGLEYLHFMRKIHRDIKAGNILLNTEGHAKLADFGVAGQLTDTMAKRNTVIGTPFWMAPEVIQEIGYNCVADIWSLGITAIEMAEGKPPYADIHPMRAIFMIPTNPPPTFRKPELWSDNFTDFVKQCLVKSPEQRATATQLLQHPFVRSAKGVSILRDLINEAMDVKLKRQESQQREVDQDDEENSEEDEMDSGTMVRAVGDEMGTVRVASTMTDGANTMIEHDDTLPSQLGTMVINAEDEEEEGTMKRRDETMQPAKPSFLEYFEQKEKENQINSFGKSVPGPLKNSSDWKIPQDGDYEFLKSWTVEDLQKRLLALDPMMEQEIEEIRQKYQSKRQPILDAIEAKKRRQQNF
The note with it: kinase MST1; 1 μM.

Assay [7] has as its target panel of more than 300 wild-type and mutant kinases (313 kinase panel) (Homo sapiens, UniProt Q9UM73, F1174L). The settings on record: kinase ALK(F1174L); 1 μM compound.

For `CO[C@H]1C[C@@H]2CC[C@@H](C)[C@@](O)(O2)C(=O)C(=O)N2CCCC[C@H]2C(=O)O[C@H]([C@H](C)C[C@@H]2CC[C@@H](OC(=O)C(C)(CO)CO)[C@H](OC)C2)CC(=O)[C@H](C)/C=C(\C)[C@@H](O)[C@@H](OC)C(=O)[C@H](C)C[C@H](C)/C=C/C=C/C=C/1C` [temsirolimus], in assay [1], the “%-inhibition of GSK3β” value is listed as -7.62%. The “%-inhibition, CaMK4” value in assay [2] was -9%. Further, the “%-inhibition of LIMK1” value in assay [3] is given as -5%. For the same compound, in assay [4], the “%-inhibition of DYRK3” value was -0.454%. In assay [5] (kinase IRR, compound at 1 μM), the “%-inhibition of IRR” value was -13%. In addition, in assay [6], the “%-inhibition of MST1” value is listed as -2.42%. The “%-inhibition, ALK(F1174L)” value in assay [7] is reported as -6%.
Take `CC(=O)Nc1cccc(-n2c(=O)n(C3CC3)c(=O)c3c(Nc4ccc(I)cc4F)n(C)c(=O)c(C)c32)c1` [trametinib]: the “%-inhibition of GSK3β” value in assay [1] is given as -15%. For the same compound, the “%-inhibition, CaMK4” value in assay [2] was -5.45%. The “%-inhibition of LIMK1” value in assay [3] is recorded as -1.84%. Further, the “%-inhibition of DYRK3” value in assay [4] is reported as -10%. In addition, in assay [5] (1 µM), the “%-inhibition of IRR” value is 1.35%. The “%-inhibition of MST1” value in assay [6] was -3.74%. The “%-inhibition, ALK(F1174L)” value in assay [7] is given as -7%.
Take `CCCS(=O)(=O)Nc1ccc(F)c(C(=O)c2c[nH]c3ncc(-c4ccc(Cl)cc4)cc23)c1F` [vemurafenib]: the “%-inhibition of GSK3β” value in assay [1] is reported as 8%. Moreover, the “%-inhibition, CaMK4” value in assay [2] is reported as -2.38%. Besides, in assay [3], the “%-inhibition of LIMK1” value was found to be 45%. For the same compound, the “%-inhibition of DYRK3” value in assay [4] was 5%. Further, the “%-inhibition of IRR” value in assay [5] (kinase IRR, compound at 1 μM) was found to be 21%. Further, in assay [6], the “%-inhibition of MST1” value is listed as 51%. In assay [7], the “%-inhibition, ALK(F1174L)” value is on record as -1.36%.

The values above are taken from article PMC3961306, “Comparison of the Cancer Gene Targeting and Biochemical Selectivities of All Targeted Kinase Inhibitors Approved for Clinical Use” (PLoS ONE, 2014).
